Experimental data taken from ChEMBL document CHEMBL1201862, “PubChem BioAssay data set” (2004).
The source made the active and inactive calls.

Assays:
[1] = C. albicans growth with fluconazole, confirmation, fluorescence, retest (AID 2467); assay type: functional, cell-based
Nonstructural protein 1 = Nonstructural protein 1 (Influenza A virus, UniProt Q194T2); assay type: functional, Influenza A virus (A/California/07/2009(H1N1))
INS1 = assay: beta cell apoptosis inhibitors, cytokine rescue, dose response, luminescence, retest (AID 449756); assay type: functional, cell-based; conditions: Rattus norvegicus;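 note: cell death triggered by IL-1 beta plus TNF-alpha plus IFN-gamma mixture; protective hits raise ATP signal compared with cytokine alone wells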
Bcl-2-like protein 10 = molecular target: T1, Bcl-2-like protein 10 (Homo sapiens, UniProt Q9HD36); assay: displacers of TR3 peptide from Bcl-B, primary screen, selectivity assay for Bfl-1 inhibitor project, biochemical, fluorescence polarization, FITC-TR3 peptide (AID 748);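 note: fluorescence polarization from a fluorescein-labelled TR3 peptide binding purified Bcl-B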
T1 sequence (Q9HD36 whole entry): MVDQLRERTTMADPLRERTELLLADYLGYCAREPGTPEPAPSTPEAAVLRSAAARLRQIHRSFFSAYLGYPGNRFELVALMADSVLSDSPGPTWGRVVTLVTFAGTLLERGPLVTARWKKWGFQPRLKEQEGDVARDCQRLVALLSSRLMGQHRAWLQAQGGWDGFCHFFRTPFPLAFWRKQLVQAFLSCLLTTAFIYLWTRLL

[2] = NIH-3T3 fibroblast cytotoxicity, dose response, cytotoxicity control, cell-based, fluorescence, Alamar Blue, secondary assay (AID 2327); assay type: functional;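 note: NIH-3T3 mouse fibroblasts cultured with fluconazole at 8 µg/mL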
[3] = THP-1 cell cytotoxicity, dose response, cytotoxicity control for Vif-APOBEC3G degradation inhibitor project, THP-1 cells (AID 1117359); assay type: functional; conditions: Human immunodeficiency virus 1, THP-1
Estrogen receptor = molecular target: T2, Estrogen receptor (Homo sapiens, UniProt P03372);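 note: potency for inhibiting coactivator peptide recruitment to the receptor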
T2 sequence (P03372 whole entry): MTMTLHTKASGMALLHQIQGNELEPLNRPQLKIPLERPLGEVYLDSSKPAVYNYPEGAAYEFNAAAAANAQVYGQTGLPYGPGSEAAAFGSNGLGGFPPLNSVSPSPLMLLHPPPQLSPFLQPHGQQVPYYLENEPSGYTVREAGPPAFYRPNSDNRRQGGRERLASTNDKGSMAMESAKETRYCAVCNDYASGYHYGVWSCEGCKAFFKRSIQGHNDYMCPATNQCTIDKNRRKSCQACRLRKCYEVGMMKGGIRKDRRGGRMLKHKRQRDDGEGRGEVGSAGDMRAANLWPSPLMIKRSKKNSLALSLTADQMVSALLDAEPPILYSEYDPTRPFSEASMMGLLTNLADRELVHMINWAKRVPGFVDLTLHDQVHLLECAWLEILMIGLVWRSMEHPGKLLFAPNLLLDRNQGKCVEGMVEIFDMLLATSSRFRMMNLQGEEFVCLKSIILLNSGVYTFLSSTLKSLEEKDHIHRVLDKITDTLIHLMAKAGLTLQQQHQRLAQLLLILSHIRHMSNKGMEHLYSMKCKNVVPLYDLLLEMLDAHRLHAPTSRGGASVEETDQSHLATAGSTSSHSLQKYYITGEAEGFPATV

[4] = Counterscreen for IDE inhibitors: Luminescence-based cell-based high throughput dose response assay to identify compounds that are cytotoxic to HEK cells. [Related pubchem assays: 434962 (Primary screen (IDE inhibitors in singlicate)), 449730 (Counterscreen (Cytotoxicity in triplicate)), 435028 (Confirmation (IDE inhibitors in triplicate)) …; assay type: functional; conditions: HEK293
Insulin-degrading enzyme = molecular target: T3, Insulin-degrading enzyme (Homo sapiens, UniProt P14735); assay: Dose Response: Fluorescence polarization-based cell-based high throughput dose response assay for inhibitors of insulin-degrading enzyme (IDE). [Related pubchem assays: 434962 (Primary screen (IDE inhibitors in singlicate)), 449730 (Counterscreen (Cytotoxicity in triplicate)), 435028 (Confirmation (IDE inhibitors in triplicate)), 434984 (Summary …; assay type: functional
T3 sequence (P14735 whole entry): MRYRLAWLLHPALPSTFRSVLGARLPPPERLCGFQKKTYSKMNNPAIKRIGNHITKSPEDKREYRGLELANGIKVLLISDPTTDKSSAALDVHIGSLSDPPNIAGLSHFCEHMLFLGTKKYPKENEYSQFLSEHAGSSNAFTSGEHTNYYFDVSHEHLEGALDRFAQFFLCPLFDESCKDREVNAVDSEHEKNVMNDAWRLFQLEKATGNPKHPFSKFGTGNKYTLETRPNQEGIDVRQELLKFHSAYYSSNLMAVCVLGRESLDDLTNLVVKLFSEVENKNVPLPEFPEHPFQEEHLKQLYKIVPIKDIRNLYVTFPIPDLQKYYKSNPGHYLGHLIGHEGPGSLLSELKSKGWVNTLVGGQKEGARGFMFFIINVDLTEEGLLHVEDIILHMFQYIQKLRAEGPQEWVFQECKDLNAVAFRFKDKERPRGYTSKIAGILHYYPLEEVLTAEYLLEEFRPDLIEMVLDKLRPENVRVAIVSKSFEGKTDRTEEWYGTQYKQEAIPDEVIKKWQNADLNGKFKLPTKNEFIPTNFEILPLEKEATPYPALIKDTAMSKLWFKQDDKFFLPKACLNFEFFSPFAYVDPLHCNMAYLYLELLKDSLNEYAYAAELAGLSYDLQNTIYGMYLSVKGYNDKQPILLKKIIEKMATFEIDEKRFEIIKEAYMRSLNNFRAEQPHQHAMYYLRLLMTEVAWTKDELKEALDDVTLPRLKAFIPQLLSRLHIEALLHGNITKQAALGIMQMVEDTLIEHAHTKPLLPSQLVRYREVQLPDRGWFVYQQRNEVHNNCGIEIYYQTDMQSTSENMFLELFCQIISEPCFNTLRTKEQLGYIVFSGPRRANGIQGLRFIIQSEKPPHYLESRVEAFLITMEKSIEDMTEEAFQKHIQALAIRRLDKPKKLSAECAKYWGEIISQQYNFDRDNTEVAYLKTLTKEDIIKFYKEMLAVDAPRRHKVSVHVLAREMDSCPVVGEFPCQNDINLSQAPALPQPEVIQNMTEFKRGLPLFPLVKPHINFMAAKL

Cytochrome P450 2C9 = Cytochrome P450 2C9 (Homo sapiens, UniProt P11712); conditions: Potency
[5] = Artemis endonuclease inhibitor potency, dose response, biochemical, fluorescence intensity (AID 720701); assay type: functional;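 note: Artemis endonuclease enzyme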
[6] = molecular target: T4, Corticotropin-releasing factor receptor 2/Corticotropin-releasing factor-binding protein (Homo sapiens, UniProt P24387+Q13324); assay: Dose Response confirmation of uHTS hits for small molecule antagonists of the CRF-binding protein and CRF-R2 receptor complex.; assay type: functional; conditions: read-out: IC50_Mean
T4 sequence (Q13324 whole entry): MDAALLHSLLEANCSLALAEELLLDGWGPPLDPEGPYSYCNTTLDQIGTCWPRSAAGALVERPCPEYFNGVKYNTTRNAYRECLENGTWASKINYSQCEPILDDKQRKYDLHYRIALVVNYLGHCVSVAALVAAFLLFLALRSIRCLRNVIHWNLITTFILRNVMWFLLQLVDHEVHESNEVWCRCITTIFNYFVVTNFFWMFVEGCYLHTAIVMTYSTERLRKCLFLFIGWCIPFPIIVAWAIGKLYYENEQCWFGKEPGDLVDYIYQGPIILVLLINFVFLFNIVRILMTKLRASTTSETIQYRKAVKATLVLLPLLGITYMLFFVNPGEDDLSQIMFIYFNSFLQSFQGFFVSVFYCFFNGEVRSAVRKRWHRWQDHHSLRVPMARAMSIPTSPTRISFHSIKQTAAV
T4 sequence (P24387 whole entry): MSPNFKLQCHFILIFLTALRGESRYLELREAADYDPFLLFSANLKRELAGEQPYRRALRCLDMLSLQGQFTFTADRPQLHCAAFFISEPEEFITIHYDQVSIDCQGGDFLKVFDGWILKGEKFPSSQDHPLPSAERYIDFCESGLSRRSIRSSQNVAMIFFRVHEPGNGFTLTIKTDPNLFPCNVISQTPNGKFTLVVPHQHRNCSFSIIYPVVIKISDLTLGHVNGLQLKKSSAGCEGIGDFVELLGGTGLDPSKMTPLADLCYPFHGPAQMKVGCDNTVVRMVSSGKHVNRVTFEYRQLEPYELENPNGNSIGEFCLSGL

[7] = CRF-BP/CRF-R2 complex antagonists, dose response, cell-based, uHTS hits, 384-well (AID 651639); assay type: functional, Homo sapiens; conditions: read-out: IC50_Mean
[8] = molecular target: T4, Corticotropin-releasing factor receptor 2/Corticotropin-releasing factor-binding protein; assay: activators of CRF receptor 2 with binding protein – uHTS hits, confirmation (AID 602473); assay type: functional; conditions: read-out: EC50_Mean
Aminopeptidase N = Aminopeptidase N (Plasmodium falciparum FcB1/Columbia, UniProt O96935); assay: P. falciparum M1AAP inhibitors, biochemical, fluorogenic H-Leu-NHMec substrate, 1536-well (AID 1445); set-up: species or system Plasmodium falciparum 3D7, 3D7
[9] = molecular target: G-protein coupled receptor 35 (Homo sapiens, UniProt Q9HC97); assay: GPR35 antagonists blocking zaprinast-driven arrestin recruitment, primary screen, imaging, U2OS, beta-arrestin-GFP, zaprinast agonist (AID 2058); assay type: functional;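 note: antagonist potency meaning inhibition of agonist-induced arrestin redistribution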
[10] = molecular target: Scavenger receptor class B member 1 (Mus musculus, UniProt Q61009); assay: inhibitors of SR-BI mediated HDL lipid uptake, dose response, ldlA[mSR-BI] cells, fluorescence, cherry pick (AID 493194); assay type: functional, cell-based;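 note: cellular uptake of fluorescent DiI-labeled HDL measured as cell fluorescence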
Scavenger receptor class B member 1, sequence (Q61009 whole entry): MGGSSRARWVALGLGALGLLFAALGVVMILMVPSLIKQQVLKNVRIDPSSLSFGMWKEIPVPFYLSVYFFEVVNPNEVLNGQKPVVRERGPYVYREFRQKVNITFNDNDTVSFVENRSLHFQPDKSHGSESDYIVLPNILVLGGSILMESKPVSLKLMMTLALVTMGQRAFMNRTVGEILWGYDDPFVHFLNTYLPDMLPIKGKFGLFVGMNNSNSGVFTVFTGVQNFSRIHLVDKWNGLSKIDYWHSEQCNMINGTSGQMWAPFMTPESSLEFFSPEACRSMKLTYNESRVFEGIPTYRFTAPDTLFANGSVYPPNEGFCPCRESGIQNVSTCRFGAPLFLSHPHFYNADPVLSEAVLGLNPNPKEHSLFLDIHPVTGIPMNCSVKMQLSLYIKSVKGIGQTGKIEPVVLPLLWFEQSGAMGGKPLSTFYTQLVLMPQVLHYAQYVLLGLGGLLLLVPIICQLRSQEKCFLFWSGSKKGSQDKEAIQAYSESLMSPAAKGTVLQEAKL

G-protein coupled receptor 35, sequence (Q9HC97 whole entry): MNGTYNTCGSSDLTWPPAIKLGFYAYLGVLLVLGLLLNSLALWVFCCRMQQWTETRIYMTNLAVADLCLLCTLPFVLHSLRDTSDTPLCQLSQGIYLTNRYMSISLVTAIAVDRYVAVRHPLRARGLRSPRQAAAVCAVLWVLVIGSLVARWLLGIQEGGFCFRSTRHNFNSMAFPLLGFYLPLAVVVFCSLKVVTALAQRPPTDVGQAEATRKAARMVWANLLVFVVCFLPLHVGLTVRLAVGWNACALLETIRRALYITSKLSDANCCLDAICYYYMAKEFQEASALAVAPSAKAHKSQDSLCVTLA
Nonstructural protein 1, sequence (Q194T2 whole entry): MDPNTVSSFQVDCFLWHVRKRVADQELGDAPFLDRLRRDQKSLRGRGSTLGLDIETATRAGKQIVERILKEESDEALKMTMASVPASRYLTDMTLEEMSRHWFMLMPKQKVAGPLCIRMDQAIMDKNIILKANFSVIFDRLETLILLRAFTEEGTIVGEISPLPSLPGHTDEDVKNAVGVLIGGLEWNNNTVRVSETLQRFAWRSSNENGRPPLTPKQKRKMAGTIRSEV
Cytochrome P450 2C9, sequence (P11712 whole entry): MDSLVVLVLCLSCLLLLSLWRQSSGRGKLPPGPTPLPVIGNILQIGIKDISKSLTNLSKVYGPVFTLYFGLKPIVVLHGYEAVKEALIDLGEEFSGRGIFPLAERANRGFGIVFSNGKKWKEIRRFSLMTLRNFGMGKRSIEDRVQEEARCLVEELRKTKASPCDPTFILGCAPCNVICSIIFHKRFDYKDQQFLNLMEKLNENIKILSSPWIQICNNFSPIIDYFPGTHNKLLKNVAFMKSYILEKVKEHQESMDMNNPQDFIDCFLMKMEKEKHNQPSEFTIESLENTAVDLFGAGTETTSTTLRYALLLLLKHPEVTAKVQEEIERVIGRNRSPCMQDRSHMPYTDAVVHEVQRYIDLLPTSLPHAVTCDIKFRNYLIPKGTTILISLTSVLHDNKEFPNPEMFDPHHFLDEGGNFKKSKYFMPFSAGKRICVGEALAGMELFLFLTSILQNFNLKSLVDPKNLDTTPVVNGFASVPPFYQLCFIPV
Aminopeptidase N, sequence (O96935 whole entry): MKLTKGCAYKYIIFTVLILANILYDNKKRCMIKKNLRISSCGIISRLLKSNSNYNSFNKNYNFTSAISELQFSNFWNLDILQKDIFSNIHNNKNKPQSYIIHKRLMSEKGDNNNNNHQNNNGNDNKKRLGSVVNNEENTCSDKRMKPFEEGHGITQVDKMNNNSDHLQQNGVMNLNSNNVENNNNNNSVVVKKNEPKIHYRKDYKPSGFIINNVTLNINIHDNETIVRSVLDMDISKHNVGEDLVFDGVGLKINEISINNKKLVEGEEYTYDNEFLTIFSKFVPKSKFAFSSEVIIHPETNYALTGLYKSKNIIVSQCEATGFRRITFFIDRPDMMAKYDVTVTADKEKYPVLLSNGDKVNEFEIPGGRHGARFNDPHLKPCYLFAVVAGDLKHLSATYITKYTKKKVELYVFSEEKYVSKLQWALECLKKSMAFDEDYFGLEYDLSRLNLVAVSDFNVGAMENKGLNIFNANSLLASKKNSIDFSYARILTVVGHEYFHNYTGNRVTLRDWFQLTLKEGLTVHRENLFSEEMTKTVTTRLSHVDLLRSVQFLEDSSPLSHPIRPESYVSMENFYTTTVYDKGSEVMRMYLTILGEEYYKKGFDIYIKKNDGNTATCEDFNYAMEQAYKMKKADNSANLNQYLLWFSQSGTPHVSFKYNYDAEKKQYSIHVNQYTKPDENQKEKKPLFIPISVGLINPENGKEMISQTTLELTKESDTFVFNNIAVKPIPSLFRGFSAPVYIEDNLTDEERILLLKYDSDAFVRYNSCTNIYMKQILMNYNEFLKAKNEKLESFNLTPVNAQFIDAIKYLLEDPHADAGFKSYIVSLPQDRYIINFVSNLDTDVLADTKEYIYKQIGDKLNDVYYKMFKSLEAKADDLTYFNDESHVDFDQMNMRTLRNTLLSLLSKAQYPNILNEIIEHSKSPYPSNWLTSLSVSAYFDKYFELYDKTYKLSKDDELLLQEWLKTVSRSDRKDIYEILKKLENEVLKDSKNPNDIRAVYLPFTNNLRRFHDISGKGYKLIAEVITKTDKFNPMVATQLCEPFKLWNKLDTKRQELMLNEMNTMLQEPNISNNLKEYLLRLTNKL

Cc1ccc2nc(O)c(C3C(C#N)=C(N)Oc4c3ccc3cccnc43)cc2c1 (stereo not drawn)
EC50 [1]: 2.17 µM (active) | IC50 (Nonstructural protein 1): 46.8 µM (active) | AC50 (INS1): 1.27 µM (active) | IC50 (Bcl-2-like protein 10): 66.8 µM (inactive) | EC50 [2]: > 160 µM (inconclusive) | CC50 [3]: 2.48 µM (active) | IC50 (Estrogen receptor): 19.5 µM (active)

CCOC(=O)N1CCN(c2ccnc3cc(Cl)ccc23)CC1
IC50 [4]: 15.7 µM (not active) | IC50 (Insulin-degrading enzyme): 18.9 µM (not active)

COc1ccc(-c2coc3ccc(O[C@@H]4O[C@@H](COC(C)=O)[C@@H](OC(C)=O)[C@@H](OC(C)=O)[C@H]4OC(C)=O)cc3c2=O)cc1
AC50 (Cytochrome P450 2C9): 20 µM (inconclusive)

O=C(Cc1ccccc1)Nc1ccc(N2CCCC2)cc1
IC50 [5]: 6.03 µM (active) | IC50 (Bcl-2-like protein 10): 31.2 µM (active)

O=C(ON=C1CCN(c2ccc([N+](=O)[O-])cc2)CC1)c1ccccc1
IC50 [6]: 2.74 µM (active) | IC50 [7]: > 20 µM (inactive) | EC50 [8]: > 53 µM (inactive) | IC50 (Aminopeptidase N): 45.2 µM (active)

CC(=O)Nc1sc(/C(C#N)=C/c2ccc(Cl)c(Cl)c2)nc1-c1ccc(C)cc1
IC50 [9]: 0.534 µM (active)

COc1cccc(N(CC(=O)NC2CCCC2)C(=O)Cn2nnc(-c3ccc(C)cc3)n2)c1
AC50 [10]: 234 µM (active)
